According to ChEMBL document CHEMBL1201862, “PubChem BioAssay data set” (2004):
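Exposure lasted 48 hours, with cells grown in 96-well plates and compounds tested at five concentrations. GI50 marks 50% less growth.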 Calls of active or inactive are those of the source. Cut-off read from the data, not from the text of the source: active = GI50 up to about 1.1 µM and inactive = higher. Where a SMILES comes first, the peptide text is derived from it. The star is where a group is joined. Boc = CC(C)(C)OC(=O)*

How the values were obtained:
Test in all cases: NCI-60 cell line screen, 48 h
[1] = test system: KM-20L2
[2] = test system: M19-MEL
[3] = test system: XF498
[4] = test system: LXFL 529
[5] = test system: T47D
[6] = test system: DU-145
[7] = test system: 786-0
[8] = test system: BT-549
[9] = test system: RXF 631

| SMILES | GI50 [1] | GI50 [2] | GI50 [3] | GI50 [4] | GI50 [5] | GI50 [6] | GI50 [7] | GI50 [8] | GI50 [9] |
| --- | --- | --- | --- | --- | --- | --- | --- | --- | --- |
| Cc1nc2ccccc2c(=O)n1Nc1ccc(C(=O)O)cc1 | > 100 µM (inactive) | > 100 µM (inactive) | > 100 µM (inactive) | – | – | – | – | – | – |
| c1ccc(-c2nnc(-c3nsc4ccccc34)o2)cc1 | > 100 µM (inactive) | > 100 µM (inactive) | – | > 100 µM (inactive) | – | – | – | – | – |
| NC(C/C=C/P(=O)(O)O)C(=O)O (centres undefined) | – | – | – | – | > 100 µM (inactive) | > 100 µM (inactive) | – | – | – |
| CC(Cc1ccccc1)Nc1ncnc2c1ncn2C1OC(CO)CC1O (centres undefined) | – | – | – | – | > 100 µM (inactive) | > 100 µM (inactive) | > 100 µM (inactive) | > 100 µM (inactive) | – |
| CCCN(CCC)c1cc2c(cc1F)c(=O)c(C(=O)O)cn2-c1ccc(N2CCN(C)CC2)cn1 | – | – | – | – | 17 µM (inactive) | 19.5 µM (inactive) | 15.8 µM (inactive) | 10.7 µM (inactive) | – |
| CCOCNC(=O)N(COCC)COCC | > 100 µM (inactive) | > 100 µM (inactive) | > 100 µM (inactive) | > 100 µM (inactive) | – | – | – | – | > 100 µM (inactive) |
| COc1ccc(-c2cc(O)c3ccc(C)nc3n2)cc1 | – | – | – | – | 96.8 µM (inactive) | > 100 µM (inactive) | – | > 100 µM (inactive) | – |
| CCOC(=O)C(Cc1ccc(N=NN(C)C)cc1)NC(=O)CC1c2ccccc2-c2ccccc21 (centres undefined) | – | 49.3 µM (inactive) | – | 50.5 µM (inactive) | – | – | 82.4 µM (inactive) | – | – |
| COc1cc(O)c2c(=O)cc(C3(O)C=CC(=O)C=C3)oc2c1 | – | – | – | – | 0.378 µM (active) | 0.839 µM (active) | – | 0.363 µM (active) | – |
| CSc1nc2c(c(N3CCOCC3)n1)C(O)n1c(nc3ccccc31)S2 (centres undefined) | – | – | – | – | 25.9 µM (inactive) | > 100 µM (inactive) | 44.3 µM (inactive) | 30.5 µM (inactive) | – |
| COC(=O)c1cccc(N[C@@H]2c3cc4c(cc3C(c3cc(OC)c(O)c(OC)c3)[C@H]3C(=O)OCC32)OCO4)c1 (some centres undefined) | 2.75 µM (inactive) | 1.28 µM (inactive) | 0.701 µM (active) | – | – | – | – | – | – |
| Nc1nc(O)c2ncn(C3C=CC(CO)O3)c2n1 (centres undefined) | – | – | – | – | > 100 µM (inactive) | > 100 µM (inactive) | – | > 100 µM (inactive) | – |
| COc1ccc(Cc2nn(C3OC(COC(C)=O)C(OC(C)=O)C(OC(C)=O)C3OC(C)=O)c(=S)n(-c3ccc(OC)cc3)c2=O)cc1 (centres undefined) | > 100 µM (inactive) | > 100 µM (inactive) | > 100 µM (inactive) | – | – | – | – | – | – |
| Cc1c2cnccc2c(C)c2c1c1ccccc1n2CC1CO1 (centres undefined) | 1.3 µM (inactive) | 1.31 µM (inactive) | – | – | – | – | – | – | – |
| COc1cccc2c(Nc3ccc(S(=O)(=O)Nc4ncccn4)cc3)c3ccc([N+](=O)[O-])cc3nc12 | – | – | – | – | 8.22 µM (inactive) | 19.5 µM (inactive) | 23.6 µM (inactive) | 59.7 µM (inactive) | – |
| CN1NC(c2ccc(Cl)cc2)=C(C#N)C(=O)CC1c1ccccc1 (centres undefined) | > 100 µM (inactive) | – | – | > 100 µM (inactive) | – | – | > 100 µM (inactive) | – | > 100 µM (inactive) |
| NC(=O)CCC(NCc1c2ccccc2[n+]([O-])c2ccccc12)C(=O)O (centres undefined) | 52.6 µM (inactive) | 95.5 µM (inactive) | – | 45.1 µM (inactive) | – | – | 70.8 µM (inactive) | – | – |
| CCc1c(O)c2c(c(O)c1C(C)=O)C(=O)c1c(cc(O)c(C(=O)O)c1C(=O)O)C2=O | – | – | – | – | > 100 µM (inactive) | > 100 µM (inactive) | > 100 µM (inactive) | > 100 µM (inactive) | – |
| CC(=O)NNc1nc(C)c(C(=O)NNC(=O)C(=O)Nc2ccccc2C#N)s1 | > 100 µM (inactive) | > 100 µM (inactive) | – | > 100 µM (inactive) | – | – | > 100 µM (inactive) | – | > 100 µM (inactive) |
| O=C1C(Br)=CC2([N+](=O)[O-])CCNC3=C(C4=NCCc5c[nH]c(c54)C3=O)C2=C1Br (centres undefined) | 0.414 µM (active) | – | 2.24 µM (inactive) | – | – | – | – | – | – |
| CN1CCC(C(O)(c2ccccc2)c2ccc(Br)cc2)CC1 (centres undefined) | – | – | – | – | 23 µM (inactive) | 81.5 µM (inactive) | 14.4 µM (inactive) | > 100 µM (inactive) | – |
| CC(C)(C)OC(=O)NC(Cc1ccccc1)C(=O)N1CCCC1C(N)=O (stereo not drawn) (Boc-Phe-Pro-NH2; configuration not given here) | – | – | – | – | > 100 µM (inactive) | > 100 µM (inactive) | – | – | – |
| Cc1ccc(S(=O)(=O)OC[C@@H]2CO2)cc1 | > 100 µM (inactive) | > 100 µM (inactive) | – | > 100 µM (inactive) | – | – | > 100 µM (inactive) | – | 68.7 µM (inactive) |
